Entries after “also recorded” stand apart in the source; their conditions may differ. Residues, ends and D or L forms follow the SMILES beside them. *: point of attachment. Cbz = O=C(OCc1ccccc1)*

One data set relates to SARS-CoV PLpro. As to conditions: cited from earlier work.
The next data set addresses USP2 (Homo sapiens, UniProt O75604). Kind of data set: In vitro USP2 activity assay. In kind it is biochemical.
The subject of data set [1] is SARS-CoV-2 PLpro. The experiment in a line: PLpro-dependent ACE2 deubiquitination and ACE2 abundance in cells. In kind it is cell-based.
A further data set relates to ACE2 protein. Kind of data set: Immunoblot of ACE2 protein abundance in cell lines. Format: cell-based, human. As to conditions: for reduction of ACE2 protein abundance: Calu-3, HepG2 and H1650 cells, 48 h. (In general: A western blot detects proteins with antibodies after separation by electrophoresis.)
Data set [2] relates to SARS-CoV-2 WT. The experiment in a line: TCID50 assay, authentic SARS-CoV-2 WT in pretreated Calu-3 cells. Format: cell-based. As to conditions: Calu-3 cells pretreated 48 h, MOI 0.01, TCID50 over time.
The next data set relates to hCoV-NL63. Kind of data set: Cytopathic effect. As to conditions: CPE assay; for inhibition of hCoV-NL63 infection: ACE2-dependent coronavirus. Format: cell-based. In general terms: Protection from cytopathic effect is a common read-out in antiviral testing.
The test system of data set [3] is hCoV-OC43. The experiment in a line: Cytopathic effect. In kind it is cell-based. Particulars: CPE assay, ACE2-independent strain.
Data set [4] has as its system hCoV-OC43. The experiment in a line: RT-qPCR of hCoV-OC43 in Huh7 cells. In kind it is cell-based. Particulars: Huh7 cells preinfected MOI 2 for 24 h, ML364 4 or 10 μM for 48 h. (In general: Quantitative PCR measures a nucleic acid by following its amplification.)
For data set [5], the target named is SARS-CoV-2 PLpro (Severe acute respiratory syndrome coronavirus 2, UniProt P0DTD1). Kind of data set: SARS-CoV-2 PLpro enzymatic activity assay. Format: biochemical. Particulars: in vitro.
A further data set concerns MERS-CoV pseudotype. Format: cell-based.
In another data set the test system is pseudotyped SARS-CoV-2. In kind it is cell-based. Particulars: for pseudotype entry of SARS-CoV-2 after 48 h pretreatment: ML364 5 μM, UDCA plus ZGG 10 μM, Calu-3, HepG2, H1650.
The test system of data set [6] is ACE2-dependent bat sarbecoviruses. In kind it is cell-based.
For the next data set, the system named is C57BL/6 mice. Kind of data set: 2-week tolerability study in male C57BL/6 mice. Format: in vivo, mouse.
In data set [7] the test system is SARS-CoV-2 WT. In kind it is in vivo, K18-hACE2 transgenic mice. Particulars: 50 mg/kg daily.
A further data set relates to SARS-CoV-2. Format: in vivo, K18-hACE2 transgenic mice.
The test system of another data set is cyclin D1 / cell cycle. The experiment in a line: TMT-based quantitative proteomic analysis and cell cycle analysis. More on the design: species or system human.
Data set [8] deals with SARS-CoV-2 Omicron BA.2 sublineage. More on the design: species or system K18-hACE2 transgenic mice. Particulars: mouse, in vivo.
Data set [9] relates to SARS-CoV-2 WT. The experiment in a line: TCID50 assay, SARS-CoV-2 WT in NHBE cells. In kind it is cell-based. As to conditions: preinfected MOI 0.01 for 1 h, 10 μM, 48 h.
[10] abbreviates: 50 mg/kg once a day or 35 mg/kg twice a day, 2 weeks.

Sequence of USP2 (O75604 whole entry): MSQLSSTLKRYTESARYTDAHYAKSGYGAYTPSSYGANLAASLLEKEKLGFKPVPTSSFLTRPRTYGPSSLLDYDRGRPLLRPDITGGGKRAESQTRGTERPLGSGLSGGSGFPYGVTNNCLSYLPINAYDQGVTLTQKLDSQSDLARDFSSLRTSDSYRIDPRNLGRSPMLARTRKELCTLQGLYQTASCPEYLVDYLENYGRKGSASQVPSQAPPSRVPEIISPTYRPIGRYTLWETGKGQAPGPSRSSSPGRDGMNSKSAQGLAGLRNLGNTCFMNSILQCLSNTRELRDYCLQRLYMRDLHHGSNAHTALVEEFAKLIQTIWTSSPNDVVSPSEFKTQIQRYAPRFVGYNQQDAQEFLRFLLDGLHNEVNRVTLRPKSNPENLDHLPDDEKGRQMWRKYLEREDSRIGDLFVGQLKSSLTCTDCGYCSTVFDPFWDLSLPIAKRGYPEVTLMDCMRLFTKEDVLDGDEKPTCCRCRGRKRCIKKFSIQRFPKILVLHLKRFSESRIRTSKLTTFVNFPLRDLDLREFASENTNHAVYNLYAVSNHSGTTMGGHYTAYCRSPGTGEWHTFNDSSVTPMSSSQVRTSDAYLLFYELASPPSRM

`S=c1nc[nH]c2nc[nH]c12` [6MP]: in the data set with SARS-CoV PLpro, the “SARS-CoV PLpro protease activity” value is recorded as “inhibit”.
In the case of `Nc1nc2[nH]cnc2c(=S)[nH]1` [6TG], the “SARS-CoV PLpro protease activity” value with SARS-CoV PLpro was “inhibit”.
On to `Cc1ccc(N)cc1C(=O)N[C@H](C)c1cccc2ccccc12` [GRL0617], for which, at USP2 (even at 100 μM), the “activity toward USP2” value is “no obvious activity”. Also, the “infection-induced reduction of ACE2” value with SARS-CoV-2 PLpro [1] was “failed to prevent the infection-induced reduction of ACE2”. Further, the “PLpro-induced ACE2 deubiquitination” value with SARS-CoV-2 PLpro [1] (in cells) is “diminished PLpro-induced ACE2 deubiquitination”.
With `CC(C)C[C@@H](C=O)NC(=O)[C@H](CC(C)C)NC(=O)[C@H](CC(C)C)NC(=O)OCc1ccccc1` [MG132] (Cbz-Leu-Leu-Leu-aldehyde), the ACE2 protein accumulation entry in the data set on ACE2 protein (HepG2 cells with cycloheximide) is listed as “noticeable ACE2 protein accumulation”.
As usually defined, the IC50 is the concentration that inhibits the measured activity by half. Consider `Cc1ccc(S(=O)(=O)Nc2cc(C(F)(F)F)ccc2C(=O)Nc2nc(-c3ccccc3)cs2)cc1` [ML364], for which, in the data set with SARS-CoV-2 WT [2], the “viral replication of SARS-CoV-2 WT” value was “obvious reduction”. Besides, in the data set on hCoV-NL63, the “inhibition of hCoV-NL63 infection” value is listed as “effective”. Also, in the data set with hCoV-NL63 (read-out: IC50 against hCoV-NL63), the IC50 is approximately 0.18 µM. The “inhibition of hCoV-OC43 infection” value in the data set with hCoV-OC43 [3] is on record as “limited or no activity”. In addition, the “activity against hCoV-OC43” value with hCoV-OC43 [4] is listed as “did not observe any activity”. Further, in the data set on ACE2 protein, the “reduction of ACE2 protein abundance” value was “reductions in ACE2 protein in all three cell lines”. The “ACE2 protein abundance decrease” value with ACE2 protein (HepG2, 10 μM, within 12 hours of treatment) turned out to be 50%. For the same molecule, at USP2, the “inhibition of USP2 activity” value is recorded as “inhibited USP2 activity”. Also, the “inhibition of SARS-CoV-2 PLpro” value at SARS-CoV-2 PLpro [5] is “inhibitory effects”. Besides, in the data set with MERS-CoV pseudotype, the “entry of MERS-CoV pseudotype” value was “did not prevent the entry”. The “SARS-CoV-2 pseudovirus entry into cells” value with pseudotyped SARS-CoV-2 (HepG2, ML364 5 μM) is on record as “obvious reduction”. In addition, the “pseudotype entry of SARS-CoV-2 after 48 h pretreatment” value in the data set with pseudotyped SARS-CoV-2 was “prevented the pseudotype entry”. Also, the “pseudotype entry of ACE2-dependent bat sarbecoviruses” value in [6] is given as “promising activity”. Further, in the data set on C57BL/6 mice (setting [10]), the clinical signs result is “healthy without any clinical signs” and the “plasma angiotensin-(1-7) concentration” value was “did not lead to any noticeable reduction”. Besides, in the data set on C57BL/6 mice (pancreas, small intestine and lung of C57BL/6 mice), the “ACE2 protein abundance in mouse tissues” value is “reduced abundance of ACE2 protein”. In the data set on SARS-CoV-2 WT [7], the “ACE2 protein abundance in the lungs” value is “significantly (P = 0.01) reduced”. Moreover, in the data set on SARS-CoV-2 WT [7] (4 days before 6-day challenge), the “viral loads in the lungs” value is recorded as “significant (P = 3.6 × 10^−6) decrease”. In addition, the “lung pathology (H&E)” value with SARS-CoV-2 WT [7] (versus vehicle) is “reduction in overall lung pathology”. Moreover, the “viral titers and SARS-CoV-2 E gene in lungs and small intestines” value with SARS-CoV-2 (administration 6 hours after infection) is “decrease in viral titers”. The lung pathology result with SARS-CoV-2 (administration 6 hours after infection, versus vehicle) is on record as “improved lung pathology”. For the same molecule, the cell cycle effect result in the data set with cyclin D1 / cell cycle is reported as “primarily cell cycle arrest”. In addition, the “cyclin D1 protein (TMT)” value with cyclin D1 / cell cycle (TMT-based proteomics) is “significant (P = 3.3 × 10^−6) decrease”. In addition, the “time of peak plasma concentration” value (single intraperitoneal dose, male C57BL/6 mice) is listed as 30 min. The “cytotoxicity by LDH release” value in the data set with HepG2 and Calu-3 cells was “minimal cytotoxicity”.
As to `Cc1ccc(S(=O)(=O)Nc2ccc(C(F)(F)F)cc2C(=O)Nc2nc(-c3ccc(Br)cc3)cs2)cc1` [MS102], the “inhibition of hCoV-NL63 infection” value in the data set on hCoV-NL63 is “effective”. The “inhibition of hCoV-OC43 infection” value in the data set on hCoV-OC43 [3] is recorded as “limited or no activity”. Further, on USP2, the “inhibition of USP2 activity” value is given as “slightly enhanced activity”. For the same molecule, in the data set with pseudotyped SARS-CoV-2 (HepG2, 5 μM, 24 h pretreatment), the “entry of ACE2-dependent pseudotypes compared with ML364” value is on record as “enhanced activity”. Besides, the “therapeutic efficacy (TCID50, lung pathology) compared with ML364” value in the data set with SARS-CoV-2 (mouse, in vivo) is given as “enhanced efficacy compared with ML364”. Besides, in data set [8], the “survival extension versus vehicle-treated control” value turned out to be 3 days. In the data set with SARS-CoV-2 WT [9], the “blocking infection of NHBE cells compared with ML364” value is on record as “improved efficacy”. Also, where the note is “C57BL/6 mice”, the “peak plasma concentration relative to ML364” value was “approximately threefold” and the “plasma concentration 24 hours after administration relative to ML364” value is on record as “approximately 2500 times”. This molecule had an oral bioavailability (male C57BL/6 mice, p.o. 50 mg/kg, i.v. 5 mg/kg) of approximately 100%. For the same molecule, the “cytotoxicity by LDH release” value in the data set with HepG2 and Calu-3 cells is “minimal cytotoxicity”.
As to `CC(O)c1cc(C(=O)N[C@@H](C)Cn2ccc(-c3ccc(C#N)c(Cl)c3)n2)[nH]n1` (some centres unmarked) [ODM-201], the “reduction of ACE2 protein abundance” value with ACE2 protein is recorded as “mild efficacy”.
As for `C[C@H](CCC(=O)O)[C@H]1CC[C@H]2[C@@H]3[C@@H](O)C[C@@H]4C[C@H](O)CC[C@]4(C)[C@H]3CC[C@]12C` [UDCA, ursodeoxycholic acid], in the data set on hCoV-NL63, the “inhibition of hCoV-NL63 infection” value is reported as “no inhibitory activity”. The “inhibition of hCoV-OC43 infection” value in the data set on hCoV-OC43 [3] is recorded as “no inhibitory activity”. The “reduction of ACE2 protein abundance” value in the data set with ACE2 protein is given as “only mildly reduced ACE2 protein”. Moreover, the “pseudotype entry of SARS-CoV-2 after 48 h pretreatment” value in the data set with pseudotyped SARS-CoV-2 is given as “only showed mild effects; also recorded: mild effect”.
With `C/C=C1\C(=O)C[C@H]2[C@@H]3CCC4=CC(=O)CC[C@]4(C)[C@H]3CC[C@]12C` [ZGG, z-guggulsterone], the “pseudotype entry of SARS-CoV-2 after 48 h pretreatment” value in the data set with pseudotyped SARS-CoV-2 is “only showed mild effects”.
For the molecule `CCC(CC)COC(=O)[C@H](C)N[P@](=O)(OC[C@H]1O[C@@](C#N)(c2ccc3c(N)ncnn23)[C@H](O)[C@@H]1O)Oc1ccccc1` [remdesivir], in the data set with hCoV-NL63, the “inhibition of hCoV-NL63 infection” value is listed as “active”. Moreover, in the data set with hCoV-OC43 [3], the “inhibition of hCoV-OC43 infection” value is reported as “active”.

Values taken from paper PMC10787358 (Science translational medicine, 2023).
